Source: US9403830B2, “Inhibitors of leukotriene production” (Boehringer Ingelheim International GmbH, priority 2012, dated 2016)

Key:
human LTA4 hydrolase = target: T1, human LTA4 hydrolase (Homo sapiens, UniProt P09960); test: LTA4H Enzyme assay (peptidase, Arg-AMC cleavage); assay type: biochemical; conditions: LTA4H enzyme 1 nM, Arg-AMC substrate 50 μM, room temperature 1 h, fluorescence 380/460 nm
T1 sequence (P09960 1-611): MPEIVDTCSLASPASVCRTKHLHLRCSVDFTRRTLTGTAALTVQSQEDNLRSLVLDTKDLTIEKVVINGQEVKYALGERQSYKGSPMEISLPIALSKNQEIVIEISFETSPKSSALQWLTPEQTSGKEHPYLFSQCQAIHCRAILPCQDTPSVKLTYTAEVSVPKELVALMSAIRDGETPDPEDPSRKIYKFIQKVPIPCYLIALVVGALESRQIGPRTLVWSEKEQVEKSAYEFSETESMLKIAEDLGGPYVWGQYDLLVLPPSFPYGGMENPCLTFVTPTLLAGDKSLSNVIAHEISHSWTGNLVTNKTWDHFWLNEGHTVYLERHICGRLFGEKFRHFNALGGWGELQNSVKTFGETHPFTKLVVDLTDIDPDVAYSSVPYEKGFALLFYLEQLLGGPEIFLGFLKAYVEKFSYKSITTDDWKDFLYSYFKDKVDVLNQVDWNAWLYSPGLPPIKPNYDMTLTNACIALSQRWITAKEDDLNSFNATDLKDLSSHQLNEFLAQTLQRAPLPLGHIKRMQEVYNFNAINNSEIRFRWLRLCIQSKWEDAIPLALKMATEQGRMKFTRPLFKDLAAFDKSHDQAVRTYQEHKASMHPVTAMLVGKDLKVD
Outline: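 Human LTA4H (1 nM final) incubated with compound and Arg-AMC (50 μM final) in 50 mM Tris-HCl pH 7.5, 100 mM KCl, 0.5% BSA, 1 h at room temperature. Product read as AMC fluorescence (ex 380/em 460 nm); IC50 reported.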

[1] = tested on: LTB4 synthesis in human whole blood; test: human whole blood (HWB) assay, inhibition of LTB4 production; assay type: cell-based; conditions: heparinized human whole blood, calcimycin 20 μM stimulation, plasma LTB4
Outline: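 Plasma LTB4, quantified by HTRF immunoassay, is the read-out after calcimycin challenge (20 μM final, 30 min, 37 °C) of heparinized whole blood that had been pretreated with compound for 15 min at 37 °C; values given as IC50.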

SMILES	IC50 (human LTA4 hydrolase) [nM]	IC50 [1] [nM]
c1cc(-c2ccc(Oc3ccc4nn(CCCN5CCCC5)cc4c3)cc2)[nH]n1 [Example 105, 5-[4-(2H-Pyrazol-3-yl)-phenoxy]-2-(3-pyrrolidin-1-yl-propyl)-2H-indazole]	0.53	200
c1cc(-c2ccc(Oc3ccc4[nH]c(CNCC5CCOCC5)nc4c3)cc2)[nH]n1 [Example 106, {5-[4-(2H-Pyrazol-3-yl)-phenoxy]-1H-benzoimidazol-2-ylmethyl}-(tetrahydro-pyran-4-ylmethyl)-amine]	0.17	200
N#C[C@@H]1CCN(Cc2ccc3cc(Oc4ccc(-c5ccn[nH]5)cn4)ccc3n2)C1 [Example 107, (R)-1-{6-[5-(2H-Pyrazol-3-yl)-pyridin-2-yloxy]-quinolin-2-ylmethyl}-pyrrolidine-3-carbonitrile]	2	220
CC(=O)N1CCN(CCc2ccc3cc(Oc4ccc(-c5ccn[nH]5)cn4)ccc3n2)CC1 [Example 108, 1-[4-(2-{6-[5-(2H-pyrazol-3-yl)-pyridin-2-yloxy]-quinolin-2-yl}-ethyl)-piperazin-1-yl]-ethanone]	0.54	230
CC(=O)NC1CCN(CCCn2ncc3cc(Oc4ccc(-c5ccn[nH]5)cc4)ccc32)CC1 [Example 109, N-[1-(3-{5-[4-(2H-Pyrazol-3-yl)-phenoxy]-indazol-1-yl}-propyl)-piperidin-4-yl]-acetamide]	0.47	230
CC(=O)N1CCC(N(C)Cc2ccc3cc(Oc4ccc(-c5ccn[nH]5)cn4)ccc3n2)CC1 [Example 110, 1-[4-(Methyl-{6-[5-(2H-pyrazol-3-yl)-pyridin-2-yloxy]-quinolin-2-ylmethyl}-amino)-piperidin-1-yl]-ethanone]	0.7	240
c1cc(-c2ccc(Oc3ccc4c(cnn4CCN4CCOCC4)c3)nc2)[nH]n1 [Example 111, 1-(2-Morpholin-4-yl-ethyl)-5-[5-(2H-pyrazol-3-yl)-pyridin-2-yloxy]-1H-indazole]	2	280
CC(C)(O)C(=O)NC1CCN(CCn2cc3cc(Oc4ccc(-c5ccn[nH]5)cn4)ccc3n2)CC1 [Example 112, 2-Hydroxy-2-methyl-N-[1-(2-{5-[5-(2H-pyrazol-3-yl)-pyridin-2-yloxy]-indazol-2-yl}-ethyl)-piperidin-4-yl]-propionamide]	2.1	280
c1cc(-c2ccc(Oc3ccc4c(CN5CCOCC5)n[nH]c4c3)nc2)[nH]n1 [Example 113, 3-Morpholin-4-ylmethyl-6-[5-(2H-pyrazol-3-yl)-pyridin-2-yloxy]-1H-indazole]	2.6	470
c1cc(-c2ccc(Oc3ccc4nc(CN5CCOCC5)oc4c3)cc2)[nH]n1 [Example 114, 2-morpholin-4-ylmethyl-6-[4-(2H-pyrazol-3-yl)-phenoxy]-benzoxazole]	0.75	500
CC(=O)N1CCN(c2ccc3cc(Oc4ccc(-c5ccn[nH]5)cn4)ccc3n2)CC1 [Example 115, 1-(4-{6-[5-(2H-Pyrazol-3-yl)-pyridin-2-yloxy]-quinolin-2-yl}-piperazin-1-yl)-ethanone]	1.7	550
CC(=O)NC1CCN(CCCn2cc3cc(Oc4ccc(-c5ccn[nH]5)cc4)ccc3n2)CC1 [Example 116, N-[1-(3-{5-[4-(2H-Pyrazol-3-yl)-phenoxy]-indazol-2-yl}-propyl)-piperidin-4-yl]-acetamide]	0.95	580
O=C1CC[C@@H](Cn2ncc3cc(Oc4ccc(-c5ccn[nH]5)cn4)ccc32)N1 [Example 117, (S)-5-{5-[5-(2H-Pyrazol-3-yl)-pyridin-2-yloxy]-indazol-1-ylmethyl}-pyrrolidin-2-one]	4.4	650
OCCCn1ncc2cc(Oc3ccc(-c4ccn[nH]4)cc3)ccc21 [Example 118, 3-{5-[4-(2H-Pyrazol-3-yl)-phenoxy]-indazol-1-yl}-propan-1-ol]	7	760
O=C1CC[C@@H](COc2nccc3cc(Oc4ccc(-c5ccn[nH]5)cc4)ccc23)N1 [Example 119, (S)-5-{6-[4-(2H-Pyrazol-3-yl)-phenoxy]-isoquinolin-1-yloxymethyl}-pyrrolidin-2-one]	20	2000
c1cc(-c2ccc(Oc3ccc4nc(OCCN5CCOCC5)ccc4c3)nc2)[nH]n1 [Example 120, 2-(2-morpholin-4-yl-ethoxy)-6-[5-(2H-pyrazol-3-yl)-pyridin-2-yloxy]-quinoline]	25	3100
CC(=O)NCCNCc1ccc2cc(Oc3ccc(-c4ccn[nH]4)cn3)ccc2n1 [Example 121, N-[2-({6-[5-(2H-Pyrazol-3-yl)-pyridin-2-yloxy]-quinolin-2-ylmethyl}-amino)-ethyl]-acetamide]	1.5	390
COCCN(C)Cc1ccc2cc(Oc3ccc(-c4ccn[nH]4)cn3)ccc2n1 [Example 122, (2-Methoxy-ethyl)-methyl-{6-[5-(2H-pyrazol-3-yl)-pyridin-2-yloxy]-quinolin-2-ylmethyl}-amine]	0.97	200
CN(C)Cc1ccc2cc(Oc3ccc(-c4ccn[nH]4)cc3)ccc2n1 [Example 123, Dimethyl-{6-[4-(2H-pyrazol-3-yl)-phenoxy]-quinolin-2-ylmethyl}-amine]	0.44	240
O=C(O)c1ccc(C2CCN(Cc3ccc4c(ccn4Cc4ccc(-c5ccn[nH]5)cc4)c3)CC2)cc1 [Example 124, 4-(1-{1-[4-(2H-pyrazol-3-yl)-benzyl]-1H-indol-5-ylmethyl}-piperidin-4-yl)-benzoic acid]	0.061	130
CC(=O)NC1CCN(CC2Cc3ccc(Oc4ccc(-c5ccn[nH]5)cn4)cc3O2)CC1 (stereo not drawn) [Example 125, N-(1-{6-[5-(2H-Pyrazol-3-yl)-pyridin-2-yloxy]-2,3-dihydro-benzofuran-2-ylmethyl}-piperidin-4-yl)-acetamide]	0.29	100
c1cc(-c2ccc(Oc3ccc4c(c3)OC(CN3CCCC3)C4)nc2)[nH]n1 (stereo not drawn) [Example 126, 5-(2H-Pyrazol-3-yl)-2-(2-pyrrolidin-1-ylmethyl-2,3-dihydro-benzofuran-6-yloxy)-pyridine]	0.51	110
c1cc(-c2ccc(Oc3ccc4cc(CN5CCCC5)oc4c3)nc2)[nH]n1 [Example 127, 5-(2H-Pyrazol-3-yl)-2-(2-pyrrolidin-1-ylmethyl-benzofuran-6-yloxy)-pyridine]	0.68	130
CC(=O)NCC1CCN(CC2Cc3ccc(Oc4ccc(-c5ccn[nH]5)cn4)cc3O2)CC1 (stereo not drawn) [Example 128, N-(1-{6-[5-(2H-Pyrazol-3-yl)-pyridin-2-yloxy]-2,3-dihydro-benzofuran-2-ylmethyl}-piperidin-4-ylmethyl)-acetamide]	0.74	170
O=C1CCCN1C1CCN(CC2Cc3ccc(Oc4ccc(-c5ccn[nH]5)cn4)cc3O2)CC1 (stereo not drawn) [Example 129, 1-(1-{6-[5-(2H-Pyrazol-3-yl)-pyridin-2-yloxy]-2,3-dihydro-benzofuran-2-ylmethyl}-piperidin-4-yl)-pyrrolidin-2-one]	0.92	190
O=C1OCCN1C1CCN(CCc2coc3cc(Oc4ccc(-c5ccn[nH]5)cn4)ccc23)CC1 [Example 130, 3-[1-(2-{6-[5-(2H-Pyrazol-3-yl)-pyridin-2-yloxy]-benzofuran-3-yl}-ethyl)-piperidin-4-yl]-oxazolidin-2-one]	0.26	99
CC(=O)N[C@H]1C[C@H]2CC[C@@H](C1)N2CC1Cc2ccc(Oc3ccc(-c4ccn[nH]4)cc3)cc2O1 (stereo partly drawn) [Example 131, N-((endo)-8-{6-[4-(2H-Pyrazol-3-yl)-phenoxy]-2,3-dihydro-benzofuran-2-ylmethyl}-8-aza-bicyclo[3.2.1]oct-3-yl)-acetamide]	0.17	120
O=C(CO)N1CC2CCC(C1)N2Cc1ccc2cc(Oc3ccc(-c4ccn[nH]4)cn3)ccc2n1 [Example 132, 2-Hydroxy-1-(8-{6-[5-(2H-pyrazol-3-yl)-pyridin-2-yloxy]-quinolin-2-ylmethyl}-3,8-diaza-bicyclo[3.2.1]oct-3-yl)-ethanone]	0.28	140
CC(=O)NC1CCN(CCc2coc3cc(Oc4ccc(-c5ccn[nH]5)cn4)ccc23)CC1 [Example 133, N-[1-(2-{6-[5-(2H-Pyrazol-3-yl)-pyridin-2-yloxy]-benzofuran-3-yl}-ethyl)-piperidin-4-yl]-acetamide]	0.35	150
CC(=O)N1CCCN(CCc2coc3cc(Oc4ccc(-c5ccn[nH]5)cn4)ccc23)CC1 [Example 134, 1-[4-(2-{6-[5-(2H-Pyrazol-3-yl)-pyridin-2-yloxy]-benzofuran-3-yl}-ethyl)-[1,4]diazepan-1-yl]-ethanone]	0.28	150
